# Values quoted from earlier work in paper PMC9516332 (Frontiers in Oncology, 2022).
# Where two headings read alike, the source gives them in different places.
# What was measured:
# Settings in all cases: cited from earlier work
# [1] = biological target: panel of 255 wild-type kinases (Homo sapiens, UniProt O75582)
# [2] = biological target: panel of 255 wild-type kinases (Homo sapiens, UniProt P11362)
# [3] = biological target: panel of 255 wild-type kinases (Homo sapiens, UniProt P29317)
# [4] = biological target: panel of 255 wild-type kinases (Homo sapiens, UniProt P29376)
# [5] = biological target: panel of 255 wild-type kinases (Homo sapiens, UniProt P42685)
# [6] = biological target: panel of 255 wild-type kinases (Homo sapiens, UniProt P45984)
# [7] = biological target: panel of 255 wild-type kinases (Homo sapiens, UniProt P54764)
# [8] = biological target: panel of 255 wild-type kinases (Homo sapiens, UniProt Q13164)
# [9] = biological target: panel of 255 wild-type kinases (Homo sapiens, UniProt Q14680)
# [10] = biological target: panel of 255 wild-type kinases (Homo sapiens, UniProt Q8N568)
# [11] = biological target: T1, panel of 255 wild-type kinases (Homo sapiens, UniProt Q96PF2)
# T1 sequence (Q96PF2 1-358): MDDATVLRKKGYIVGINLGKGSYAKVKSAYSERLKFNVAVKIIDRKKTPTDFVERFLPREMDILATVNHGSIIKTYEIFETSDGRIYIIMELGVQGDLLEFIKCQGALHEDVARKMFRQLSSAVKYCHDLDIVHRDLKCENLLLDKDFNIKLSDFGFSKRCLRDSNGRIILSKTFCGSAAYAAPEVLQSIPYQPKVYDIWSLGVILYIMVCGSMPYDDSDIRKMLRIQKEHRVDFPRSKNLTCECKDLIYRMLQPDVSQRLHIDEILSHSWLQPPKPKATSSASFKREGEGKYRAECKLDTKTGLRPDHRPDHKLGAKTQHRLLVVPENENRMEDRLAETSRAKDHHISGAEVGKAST
# [12] = biological target: T2, panel of 255 wild-type kinases (Homo sapiens, UniProt Q9H093)
# T2 sequence (Q9H093 1-628): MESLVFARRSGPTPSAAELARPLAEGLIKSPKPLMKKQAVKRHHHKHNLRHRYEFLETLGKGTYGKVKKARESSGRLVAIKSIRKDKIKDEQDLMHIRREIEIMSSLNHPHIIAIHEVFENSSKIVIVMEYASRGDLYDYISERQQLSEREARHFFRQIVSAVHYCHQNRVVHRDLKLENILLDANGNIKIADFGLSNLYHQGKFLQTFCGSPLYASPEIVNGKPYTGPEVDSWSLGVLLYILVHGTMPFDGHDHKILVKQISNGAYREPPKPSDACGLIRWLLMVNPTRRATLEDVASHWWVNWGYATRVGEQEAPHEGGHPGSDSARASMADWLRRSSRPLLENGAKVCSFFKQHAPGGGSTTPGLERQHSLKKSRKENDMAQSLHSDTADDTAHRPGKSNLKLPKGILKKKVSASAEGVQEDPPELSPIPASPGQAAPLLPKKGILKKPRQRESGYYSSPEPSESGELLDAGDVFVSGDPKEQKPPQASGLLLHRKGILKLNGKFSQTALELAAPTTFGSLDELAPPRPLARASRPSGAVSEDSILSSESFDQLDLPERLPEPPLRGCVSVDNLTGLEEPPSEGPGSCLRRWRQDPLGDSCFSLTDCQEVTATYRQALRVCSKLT
# [13] = biological target: panel of 255 wild-type kinases (Homo sapiens, UniProt Q9P289)
# [14] = biological target: T3, panel of 255 wild-type kinases (Homo sapiens, UniProt Q9UQB9)
# T3 sequence (Q9UQB9 1-309): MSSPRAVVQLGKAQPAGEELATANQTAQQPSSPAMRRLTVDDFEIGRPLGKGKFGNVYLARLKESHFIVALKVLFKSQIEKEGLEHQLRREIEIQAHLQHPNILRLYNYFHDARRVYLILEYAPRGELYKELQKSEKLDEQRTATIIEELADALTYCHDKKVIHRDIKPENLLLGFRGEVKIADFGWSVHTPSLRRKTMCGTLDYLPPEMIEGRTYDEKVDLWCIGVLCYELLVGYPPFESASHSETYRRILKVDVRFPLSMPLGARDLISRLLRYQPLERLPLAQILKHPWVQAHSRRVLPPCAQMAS
structure (smiles),measurement,setting,value
CCc1cc2c(cc1N1CCC(N3CCOCC3)CC1)C(C)(C)c1[nH]c3cc(C#N)ccc3c1C2=O [alectinib],"%-inhibition, MSK1","[1]; MSK1, 1 µmol/L single concentration, ref DOI: 10.1158/1535-7163.MCT-18-0877",0.0374%
same,"%-inhibition at 1 µmol/L, FGFR1","[2]; kinase FGFR1, 1 µmol/L single concentration, ref DOI: 10.1158/1535-7163.MCT-18-0877",5.37%
same,"%-inhibition at 1 µmol/L, EPHA2","[3]; kinase EPHA2, 1 µmol/L single concentration, ref DOI: 10.1158/1535-7163.MCT-18-0877",1.88%
same,"%-inhibition at 1 µmol/L, LTK","[4]; kinase LTK, 1 µmol/L single concentration, ref DOI: 10.1158/1535-7163.MCT-18-0877",99%
same,"%-inhibition at 1 µmol/L, FRK","[5]; kinase FRK, 1 µmol/L single concentration, ref DOI: 10.1158/1535-7163.MCT-18-0877",53%
same,"%-inhibition at 1 µmol/L, JNK2","[6]; kinase JNK2, 1 µmol/L single concentration, ref DOI: 10.1158/1535-7163.MCT-18-0877",-0.468%
same,"%-inhibition at 1 µmol/L, EPHA4","[7]; kinase EPHA4, 1 µmol/L single concentration, ref DOI: 10.1158/1535-7163.MCT-18-0877",3%
same,"%-inhibition at 1 µmol/L, Erk5","[8]; kinase Erk5, 1 µmol/L single concentration, ref DOI: 10.1158/1535-7163.MCT-18-0877",-1.24%
same,"%-inhibition, MELK","[9]; MELK, 1 µmol/L single concentration, ref DOI: 10.1158/1535-7163.MCT-18-0877",29%
same,"%-inhibition at 1 µmol/L, DCAMKL2","[10]; kinase DCAMKL2, 1 µmol/L single concentration, ref DOI: 10.1158/1535-7163.MCT-18-0877",7%
same,"%-inhibition at 1 µmol/L, TSSK2","[11]; kinase TSSK2, 1 µmol/L single concentration, ref DOI: 10.1158/1535-7163.MCT-18-0877",7%
same,"%-inhibition, NuaK2","[12]; NuaK2, 1 µmol/L single concentration, ref DOI: 10.1158/1535-7163.MCT-18-0877",-1.06%
same,"%-inhibition, MST4","[13]; MST4, 1 µmol/L single concentration, ref DOI: 10.1158/1535-7163.MCT-18-0877",-7%
same,%-inhibition AurC,"[14]; AurC kinase assay, 1 µmol/L single concentration, ref DOI: 10.1158/1535-7163.MCT-18-0877",2.65%
COc1cc(N2CCC(N3CCN(C)CC3)CC2)ccc1Nc1ncc(Cl)c(Nc2ccccc2P(C)(C)=O)n1 [brigatinib],"%-inhibition, MSK1",[1],23%
same,"%-inhibition at 1 µmol/L, FGFR1",[2],95%
same,"%-inhibition at 1 µmol/L, EPHA2",[3],-2.16%
same,"%-inhibition at 1 µmol/L, LTK",[4],100%
same,"%-inhibition at 1 µmol/L, FRK",[5],104%
same,"%-inhibition at 1 µmol/L, JNK2",[6],50%
same,"%-inhibition at 1 µmol/L, EPHA4",[7],3%
same,"%-inhibition at 1 µmol/L, Erk5",[8],96%
same,"%-inhibition, MELK",[9],49%
same,"%-inhibition at 1 µmol/L, DCAMKL2",[10],52%
same,"%-inhibition at 1 µmol/L, TSSK2",[11],79%
same,"%-inhibition, NuaK2",[12],98%
same,"%-inhibition, MST4",[13],-1.25%
same,%-inhibition AurC,[14],44%
